Laboratory results as given in patent US20240125703A1, “SYSTEMS AND METHODS FOR Q[…] OBSERVED VISUALIZATION OF FL[…] AGENTS” (Stryker Corporation, priority 2022, published 2024).

Legend:
ureter(s) = assay: Phase 2 dose ranging study, Visualization Review Committee (VRC) assessment of ureter visualization; format: in vivo, human
Description: The results from the Phase 1 study provided the foundation for Phase 2 study, a randomized open-label, dose ranging study for ureter visualization, using ASP5354 in participants undergoing laparoscopic/minimally invasive colorectal surgery.
The results of the Phase 2 study support the use of pudexacianinium as an intraoperative ureter visualization (surgeon's ability to identify/locate the ureter from the surrounding structures) during the entire abdominopelvic surgical procedure. […] As a result, the VRC recommended moving forward with the 1 mg per participant dose for Phase 3.

[1] = Urine concentration of pudexacianinium in minipigs; format: in vivo, Gottingen minipigs; conditions: 0.01 mg/kg; over 3 hour observation period
Procedure: A direct translation of the nonclinical pharmacology visualization results in the intended clinical use and dose in humans is considered feasible given the simple elimination route of the dye in both cases (eliminated entirely through renal system) and given the physiologic comparability between porcine and human kidneys. The 0.01 mg/kg dose used in pigs translates to an approximate human equivalent dose of 0.7-0.8 mg/participant. This is consistent with the dose recommendation for the clinical Phase 3 study (1 mg/participant).

ureters [2] = assay: Qualitative in vivo ureter visualization in Yorkshire pig (Stryker 1588 AIM System and SPY-PHI open field system); conditions: 0.01 mg/kg, iv; either imaging system; prior to any dissection
Procedure: In a second qualitative in vivo study, pudexacianinium (0.01 mg/kg, iv) was injected into a healthy female Yorkshire pig and the ureters were visualized using examples of an image guided surgery system 10 of FIG. 1A—a Stryker Corporation 1588 AIM System and a Stryker Corporation SPY-PHI open field system—prior to any dissection.

pig ureters ex vivo = assay: NIR-F of pudexacianinium instilled in pig ureters ex vivo (PDE-NEO NIR-F imager); conditions: for NIR-F Intensity: mean, three ureters
Procedure: In the second study, pudexacianinium (0.01-10 μg/mL) was instilled in pig ureters ex vivo and the NIR-F determined using a PDE-NEO NIR-F imager. Here too, the NIR-F intensity increased with increasing concentrations of pudexacianinium with the fluorescence intensity tending to plateau at concentrations equal to or greater than 1 μg/mL, as shown in the table below. Thus, the fluorescence activity of pudexacianinium can be visualized in the lumen of ureters.

ureters [3] = assay: Contrast quantification / contrast enhancement factor (CEF) from surgical video frames of ureters, laparoscopic/minimally invasive colorectal surgery (Phase 2); format: in vivo, human; conditions: for contrast quantification: single subject, 1.0 mg dose
Procedure: The following example illustrates using contrast quantification, according to method 100, to assess the visual effectiveness of different fluorescence imaging agent doses. In this example, subjects undergoing laparoscopic/minimally invasive colorectal surgery received doses of either 0.3 mg, 1.0 mg, or 3 mg of pudexacianinium chloride (Chemical formula (A))—an indocyanine-green derivative fluorescence imaging agent with hydrophilic properties and rapid urinary clearance without metabolism after intravenous administration—at the start of the minimally invasive surgery procedure and the normal colectomy was completed.
At pre-specified time intervals during the surgery, the surgeon utilized a fluorescence visualization system to examine the retroperitoneum and attempted to visualize the ureters. The surgical videos generated by the fluorescence visualization system were recorded. Frames from these surgical videos were analyzed according to method 100 to quantify the color contrast observable by the surgeon when a bolus of the fluorescence imaging agent passed through the ureters.
Baseline and fluorescence-containing images for a subject who received a 1.0 mg dose of the fluorescence imaging agent are illustrated in FIG. 5—baseline image 400 and fluorescence-containing image 402. The color images 400, 402 are full color surgical video frames generated by a fluorescence visualization system that combines full color and fluorescence frames into a combined frame in which the fluorescence signal is captured in the green component of the frame. The color images 400, 402 capture a portion of a ureter, which is visible in bright green in fluorescence-containing image 402. The fluorescence-containing image 402 was captured while a bolus of the fluorescence imaging agent was present in the portion of the ureter within the field of view, and the baseline image 400 was captured shortly after the bolus of the fluorescence imaging agent had at least partially passed through the portion of the ureter.
Each of the color images 400, 402 was imported in a video analysis software and exported as separate greyscale bitmaps of the red (R), green (G) and blue (B) color components corresponding to each full color image frame.
Next, a line was plotted that transects the ureter at the same location on both the fluorescence-containing and baseline bitmaps for each R, G, and B color component. Graphs were subsequently created that plot the bitmap signal intensity values at each point along the line segment against position on the line segment for each line segment in each color component. Red, green and blue graphs were constructed for each pair of fluorescence-containing — baseline color components. Exemplary graphs are illustrated in FIGS. 7A-C, which include the graphs for each color component for the fluorescence-containing image (“dye”) and baseline image (“no-dye”) on the same plot. FIG. 7A is the graph for the red color component for the fluorescence-containing and baseline images, FIG. 7B is the graph for the blue color component for the fluorescence-containing and baseline images, and FIG. 7C is the graph for the green color component for the fluorescence-containing and baseline images,
At least the graph for the green component was then analyzed to identify, according to steps 104 and 106 of method 100, regions along the line segment (shown in FIG. 7D as position 0-300) that—by comparison with the bitmap—lie clearly inside the anatomical boundaries of the ureter (a region encompassed by the anatomy of interest according to step 104) or clearly outside of those same anatomical boundaries (a region not encompassed by the anatomy of interest according to step 106). Note that the “inside” and “outside” regions are different for the fluorescence imaging agent (“dye”) and baseline (“no Dye”) images due to the differences in the field of view of the color images. […]

[4] = In vitro NIR-F of ASP5354 in 96 well plates, microplate reader (excitation 780 nm, emission 820 nm); format: physicochemical; conditions: 0.01-1000 μg/mL in 96 well plates
Procedure: The following example illustrates using a measure of visual enhancement of the anatomy of interest in a color image (a contrast enhancement factor), generated according to method 100, as an alternative to biological samples for bioequivalence and bioavailability assessments of a fluorescence imaging agent, in particular the fluorescence dye ASP5354 (pudexacianinium). In this example, two in vitro studies were performed to determine the effect of ASP5354 concentration on near-infrared fluorescence (NIR-F). In the first study, ASP5354 (0.01-1000 μg/mL) was added to 96 well plates, the plates placed in a microplate reader, and subjected to a near-infrared excitation frequency of 780 nm. The emitted NIR-F determined at a wavelength of 820 nm. The fluorescence intensity increased as the concentration of pudexacianinium increased and tended to plateau at concentrations greater than or equal to 100 μg/mL.

ureters [5] = assay: In vivo ureter visualization in Gottingen minipigs, NIR-F camera, visual assessment by three clinicians
Procedure: Next, the ability to visualize ureters in vivo was assessed in Gottingen minipigs. The animals were anesthetized, laparotomized and then intravenously injected with pudexacianinium (0.001 or 0.01 mg/kg). Videos of the abdominal cavity were taken using a NIR-F camera and assessed visually by three independent clinicians for up to three hours.

[6] = Dye in ureter, 1 mg (N = 6) including expansion
[7] = No Dye in ureter, 0.3 mg (N = 3)
[8] = No Dye in ureter, 1 mg (N = 6) including expansion

## pudexacianinium chloride
ureter(s); 0.3 mg per participant
  VRC: adequacy for ureter(s) visualization: inadequate for ureter(s) visualization
ureter(s); 1 mg per participant, during procedure, at beginning and end
  VRC: ureter(s) visualization: provided ureter(s) visualization during the surgical procedure
ureter(s); 1 mg vs 3 mg dose
  VRC: difference in ureter(s) visualization between doses: no notable differences
ureter(s); all doses (0.3, 1, 3 mg per participant)
  VRC conclusion on ureter visualization under NIR-F conditions: enhanced visualization of ureter(s)
ureter(s); single dose of 1 mg and 3 mg per participant
  VRC: visualization throughout the duration of the surgical procedure: consistently occurred
[1]
  urine concentration of pudexacianinium: 1 to 6 µg/mL
Ureters [2]
  visibility of ureters: readily visible
Pig ureters ex vivo; 0.01 ug/mL
  NIR-F Intensity: 0.000 arbitrary units
Pig ureters ex vivo; 0.03 ug/mL
  NIR-F Intensity: 4.672 arbitrary units
Pig ureters ex vivo; 0.1 ug/mL
  NIR-F Intensity: 47.945 arbitrary units
Pig ureters ex vivo; 0.3 ug/mL
  NIR-F Intensity: 125.078 arbitrary units
Pig ureters ex vivo; 1.0 ug/mL
  NIR-F Intensity: 229.504 arbitrary units
Pig ureters ex vivo; 3.0 ug/mL
  NIR-F Intensity: 254.867 arbitrary units
Pig ureters ex vivo; 10 ug/mL
  NIR-F Intensity: 254.808 arbitrary units
Pig ureters ex vivo; 0.01-10 μg/mL in pig ureters ex vivo
  concentration at which NIR-F intensity tended to plateau: ≥ 1 µg/mL
Ureters [3]; 0.3 mg, N 3, Baseline image
  Contrast quantification, Mean: 1.10
Ureters [3]; 0.3 mg, N 3, Fluorescence-containing image
  Contrast quantification, Mean: 1.84
Ureters [3]; 1 mg and 3 mg, dye
  proportion of data with CEF above 1.5: ≥ 90%
Ureters [3]; 1.0 mg, N 6, Fluorescence-containing image (first column of the dose)
  Contrast quantification, Mean: 2.55
Ureters [3]; 1.0 mg, N 6, head printed Fluorescence-containing image (second column of the dose)
  Contrast quantification, Mean: 1.06
Ureters [3]; 3.0 mg, N 3, Fluorescence-containing image (first column of the dose)
  Contrast quantification, Mean: 3.23
Ureters [3]; 3.0 mg, N 3, head printed Fluorescence-containing image (second column of the dose)
  Contrast quantification, Mean: 1.09
Ureters [3]; Dye in ureter, 0.3 mg (N = 3)
  CEF, Mean (SD): 1.84 (0.46)
  CEF, Median: 1.77
  CEF, Min-Max: 1.3-3.0
Ureters [3]; Dye in ureter, 1 mg (N = 3)
  CEF, Mean (SD): 2.97 (1.03)
  CEF, Median: 2.96
  CEF, Min-Max: 1.6-5.6
Ureters [3]; [6]
  CEF, Mean (SD): 2.55 (0.95)
  CEF, Median: 2.28
  CEF, Min-Max: 1.3-5.6
Ureters [3]; Dye in ureter, 3 mg (N = 3)
  CEF, Mean (SD): 3.23 (1.70)
  CEF, Median: 2.64
  CEF, Min-Max: 1.2-7.7
Ureters [3]; [7]
  CEF, Mean (SD): 1.10 (0.13)
  CEF, Median: 1.05
  CEF, Min-Max: 0.9-1.3
Ureters [3]; No Dye in ureter, 1 mg (N = 3)
  CEF, Mean (SD): 1.06 (0.12)
  CEF, Median: 1.07
  CEF, Min-Max: 0.8-1.3
Ureters [3]; [8]
  CEF, Mean (SD): 1.06 (0.12)
  CEF, Median: 1.06
  CEF, Min-Max: 0.8-1.4
Ureters [3]; No Dye in ureter, 3 mg (N = 3)
  CEF, Mean (SD): 1.09 (0.10)
  CEF, Median: 1.10
  CEF, Min-Max: 0.7-1.2
Ureters [3]; baseline image
  contrast quantification: 1.3
Ureters [3]; baseline images, absence of bolus
  contrast quantification value for the baseline images: around 1
Ureters [3]; fluorescence imaging agent image
  contrast quantification: 2.0
Ureters [3]; no dye conditions
  CEF value, all data points: below 1.5
Ureters [3]; no dye present in the ureter
  reference CEF: ~1
[4]
  concentration at which fluorescence intensity tended to plateau: greater than or equal to 100 μg/mL
Ureters [5]; 0.001 mg/kg intravenously
  animals demonstrating ureteral visualization for three hours: one out of three
Ureters [5]; 0.01 mg/kg intravenously
  animals showing ureteral visualization for the full three hour observation period: three out of three
